Test results from ChEMBL document CHEMBL4406848, “Novel water soluble BODIPY compounds: Synthesis, photochemical, DNA interaction, topoisomerases inhibition and photodynamic activity properties” (Eur J Med Chem, 2019).
The source made the active and inactive calls. The rule behind the calls is not given here.

What was measured:
[1] = Induction of singlet oxygen generation in DMSO solution assessed as singlet oxygen quantum yield by measuring reduction in DPBF irradiated with 650 nanometer laser light; format: functional
[2] = Photostability of compound in TBS assessed as percentage of photodegradation measured every 10 mins for 1 hr at 17.5 mW/cm'2 irradiation by UV-visible spectrophotometry
Calf thymus DNA [3] = assay: Binding affinity to calf thymus DNA assessed as binding constant incubated for 10 mins by UV-visible spectrophotometry; format: nucleic-acid assay; settings: Bos taurus
Calf thymus DNA [4] = assay: Competitive binding affinity to calf thymus DNA assessed as change in viscosity incubated for 10 mins by viscometer; format: nucleic-acid assay; settings: Bos taurus
DNA [5] = assay: Induction of Escherichia coli plasmid pBR322 DNA cleavage at 3.125 to 25 uM incubated for 1 hr in dark by agarose gel electrophoresis; format: nucleic-acid assay
DNA [6] = assay: Induction of Escherichia coli plasmid pBR322 DNA cleavage assessed as decrease in supercoiled DNA at 3.125 uM in presence of light irradiation and incubated for 1 hr by agarose gel electrophoresis relative to control; format: nucleic-acid assay; parameters: scale not given: the % may be the effect or the level left
[7] = target: T1, DNA topoisomerase 1 (Homo sapiens) (UniProt P11387); assay: Inhibition of recombinant human topoisomerase 1 at 12.50 uM incubated for 1 hr by ethidium bromide staining based agarose gel electrophoresis method relative to control
T1 sequence (whole entry): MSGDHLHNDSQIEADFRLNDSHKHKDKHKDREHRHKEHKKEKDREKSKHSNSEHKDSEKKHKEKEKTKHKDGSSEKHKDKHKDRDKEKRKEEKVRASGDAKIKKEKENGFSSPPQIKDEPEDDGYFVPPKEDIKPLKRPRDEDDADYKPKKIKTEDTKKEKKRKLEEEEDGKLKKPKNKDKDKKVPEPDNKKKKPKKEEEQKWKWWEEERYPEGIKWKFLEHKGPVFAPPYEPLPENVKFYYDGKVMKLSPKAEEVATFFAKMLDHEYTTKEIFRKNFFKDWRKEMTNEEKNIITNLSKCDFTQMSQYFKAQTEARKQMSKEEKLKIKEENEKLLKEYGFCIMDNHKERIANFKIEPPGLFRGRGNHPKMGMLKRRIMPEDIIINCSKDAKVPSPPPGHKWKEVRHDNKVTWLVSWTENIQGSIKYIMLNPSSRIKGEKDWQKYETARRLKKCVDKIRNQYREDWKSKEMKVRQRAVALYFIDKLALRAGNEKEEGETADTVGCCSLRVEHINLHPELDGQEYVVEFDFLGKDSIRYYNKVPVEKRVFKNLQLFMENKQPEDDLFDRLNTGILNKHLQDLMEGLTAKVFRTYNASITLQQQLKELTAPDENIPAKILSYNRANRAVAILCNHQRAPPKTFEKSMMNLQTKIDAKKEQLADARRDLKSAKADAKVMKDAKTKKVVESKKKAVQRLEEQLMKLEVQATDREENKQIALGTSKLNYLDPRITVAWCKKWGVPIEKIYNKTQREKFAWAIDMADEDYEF

[8] = target: T2, DNA topoisomerase II (Homo sapiens) (UniProt P11388+Q02880); assay: Inhibition of recombinant human topoisomerase 2 assessed as supercoiled DNA at 50 uM incubated for 1 hr by ethidium bromide staining based agarose gel electrophoresis method relative to control; format: protein assay; parameters: scale not given: the % may be the effect or the level left
[9] = target: T2, DNA topoisomerase II (Homo sapiens); assay: Inhibition of recombinant human topoisomerase 2 at 25 uM incubated for 1 hr by ethidium bromide staining based agarose gel electrophoresis method relative to control; format: protein assay
[10] = target: T2, DNA topoisomerase II (Homo sapiens); assay: Inhibition of recombinant human topoisomerase 2 at 50 uM incubated for 1 hr by ethidium bromide staining based agarose gel electrophoresis method relative to control; format: protein assay
HCT-116 [11] = assay: Cytotoxicity against human HCT116 cells assessed as cell viability at 0.5 and 1 uM incubated for 24 hrs in dark by MTT assay; format: functional, cell-based
HCT-116 [12] = assay: Cytotoxicity against human HCT116 cells assessed as cell viability at 100 uM incubated for 24 hrs in dark by MTT assay relative to control; format: functional; settings: HCT-116, 24 h, read-out: Activity
HCT-116 [13] = assay: Cytotoxicity against human HCT116 cells assessed as cell viability at 50 uM incubated for 24 hrs in dark by MTT assay relative to control; format: functional; settings: HCT-116, 24 h, read-out: Activity
HCT-116 [14] = assay: Cytotoxicity against human HCT116 cells assessed as cell viability at 10 uM incubated for 24 hrs in dark by MTT assay relative to control; format: functional; settings: HCT-116, 24 h, read-out: Activity
HCT-116 [15] = assay: Cytotoxicity against human HCT116 cells assessed as cell viability incubated for 24 hrs in dark by MTT assay; format: functional, cell-based; settings: for IC50: HCT-116, 24 h
HCT-116 [16] = assay: Cytotoxicity against human HCT116 cells assessed as cell viability at 5 uM incubated for 24 hrs in dark by MTT assay relative to control; format: functional; settings: HCT-116, 24 h, read-out: Activity
HCT-116 [17] = assay: Cytotoxicity against human HCT116 cells assessed as cell viability at 1 uM incubated for 24 hrs in dark by MTT assay relative to control; format: functional; settings: HCT-116, 24 h, read-out: Activity
HCT-116 [18] = assay: Cytotoxicity against human HCT116 cells assessed as cell viability at 0.5 uM incubated for 24 hrs in dark by MTT assay relative to control; format: functional; settings: HCT-116, 24 h, read-out: Activity
HCT-116 [19] = assay: Phototoxicity against human HCT116 cells assessed as cell viability at 100 uM incubated for 24 hrs under 17.5 mW/cm2 light irradiation by MTT assay relative to control; format: functional; settings: HCT-116, light or radiation study, read-out: Activity
HCT-116 [20] = assay: Phototoxicity against human HCT116 cells assessed as cell viability at 50 uM incubated for 24 hrs under 17.5 mW/cm2 light irradiation by MTT assay relative to control; format: functional; settings: HCT-116, light or radiation study, read-out: Activity
HCT-116 [21] = assay: Phototoxicity against human HCT116 cells assessed as cell viability at 10 uM incubated for 24 hrs under 17.5 mW/cm2 light irradiation by MTT assay relative to control; format: functional; settings: HCT-116, light or radiation study, read-out: Activity
HCT-116 [22] = assay: Phototoxicity against human HCT116 cells assessed as cell viability at 5 uM incubated for 24 hrs under 17.5 mW/cm2 light irradiation by MTT assay relative to control; format: functional; settings: HCT-116, light or radiation study, read-out: Activity
HCT-116 [23] = assay: Phototoxicity against human HCT116 cells assessed as cell viability at 1 uM incubated for 24 hrs under 17.5 mW/cm2 light irradiation by MTT assay relative to control; format: functional; settings: HCT-116, light or radiation study, read-out: Activity
HCT-116 [24] = assay: Phototoxicity against human HCT116 cells assessed as reduction in cell viability incubated for 24 hrs under 17.5 mW/cm2 light irradiation by MTT assay; format: functional, cell-based; settings: HCT-116, light or radiation study
HCT-116 [25] = assay: Induction of apoptosis in human HCT116 cells assessed as viable cells at 10 uM incubated for 24 hrs in presence of irradiation by annexin V FITC and propidium iodide based flow cytometry (reference value: 94.8 %); format: functional; settings: HCT-116, light or radiation study, read-out: Activity
HCT-116 [26] = assay: Induction of apoptosis in human HCT116 cells assessed as early apoptotic cells at 10 uM incubated for 24 hrs in presence of irradiation by annexin V FITC and propidium iodide based flow cytometry (reference value: 3.4 %); format: functional
HCT-116 [27] = assay: Induction of apoptosis in human HCT116 cells assessed as late apoptotic cells at 10 uM incubated for 24 hrs in presence of irradiation by annexin V FITC and propidium iodide based flow cytometry (reference value: 1.6 %); format: functional
HCT-116 [28] = assay: Induction of apoptosis in human HCT116 cells assessed as necrotic cells at 10 uM incubated for 24 hrs in presence of irradiation by annexin V FITC and propidium iodide based flow cytometry (reference value: 0.2 %); format: functional

Kb (Calf thymus DNA [3]) | Activity (Calf thymus DNA [4]) | Activity (DNA [5]) | Activity (DNA [6]) [%] | inhibition [7] [%] | Activity [8] [%] | inhibition [9] [%] | inhibition [10] [%] | Structure (SMILES) | Activity [1] | Drug degradation [2] [%] | Activity (HCT-116 [11]) | viability at 100 µM (HCT-116 [12]) [%] | viability at 50 µM (HCT-116 [13]) [%] | viability at 10 µM (HCT-116 [14]) [%] | IC50 (HCT-116 [15]) [µM] | viability at 5 µM (HCT-116 [16]) [%] | viability at 1 µM (HCT-116 [17]) [%] | viability at 0.5 µM (HCT-116 [18]) [%] | viability at 100 µM (HCT-116 [19]) [%] | viability at 50 µM (HCT-116 [20]) [%] | other results
1.87 ×10⁴ /M | Active | inactive | 76.8 | 88.5 | 77.2 | 54.6 | 56.2 | CC1=CC(/C=C/c2ccc(OCCCc3ccc[n+](C)c3)cc2)=[N+]2C1=C(c1ccc(OCCCc3ccc[n+](C)c3)cc1)c1c(C)cc(/C=C/c3ccc(OCCCc4ccc[n+](C)c4)cc3)n1[B-]2(F)F.[I-].[I-].[I-] | 0.46 | 17.7 | inactive | 57 | 67 | 88 | > 100 | 91 | 100 | 100 | 0 | 6 | Activity (HCT-116 [15]): Dose-dependent effect; viability at 10 µM (HCT-116 [21]): 10%; viability at 5 µM (HCT-116 [22]): 25%; viability at 1 µM (HCT-116 [23]): 97%; IC50 (HCT-116 [24]): 3.95 µM; viability at 10 µM (HCT-116 [25]): 9.6%; Activity (HCT-116 [26]): 54.4%; Activity (HCT-116 [27]): 32.5%; Activity (HCT-116 [28]): 3.4%
1.59 ×10³ /M | Active | inactive | 58.5 | 89.1 | 87.7 | 58.7 | 61.5 | CC1=CC(/C=C/c2ccc(OCCCc3ccc[n+](C)c3)c(OCCCc3ccc[n+](C)c3)c2)=[N+]2C1=C(c1ccc(OCCCc3ccc[n+](C)c3)c(OCCCc3ccc[n+](C)c3)c1)c1c(C)cc(/C=C/c3ccc(OCCCc4ccc[n+](C)c4)c(OCCCc4ccc[n+](C)c4)c3)n1[B-]2(F)F.[I-].[I-].[I-].[I-].[I-].[I-] | 0.62 | 18.7 | inactive | 90 | 100 | 96 | > 100 | 96 | 100 | 100 | 66 | 85 | viability at 10 µM (HCT-116 [21]): 99%; viability at 5 µM (HCT-116 [22]): 100%; viability at 1 µM (HCT-116 [23]): 100%; IC50 (HCT-116 [24]): > 100 µM; viability at 10 µM (HCT-116 [25]): 95.5%; Activity (HCT-116 [26]): 3.3%; Activity (HCT-116 [27]): 1%; Activity (HCT-116 [28]): 0.1%
